Reference: ChEMBL document CHEMBL6074641, “Polypharmacological Drug Design Guided by Integrating Phenotypic and Restricted Fragment Docking Strategies” (J Med Chem, 2024)
Active and inactive are the calls of the source. No cut-off for these calls is given here.

Tests used:
Microglia [1] = assay: Anti-necroptosis activity in LPS/zVAD stimulated mouse primary microglia overexpressed with RIPK1 assessed as reversal of translucent cytoplasm by TEM analysis; format: functional, cell-based
Mus musculus [2] = assay: Anti-alzheimer activity against 8 month old 3xTg mouse model assessed as improved cognitive ability at 2 mg/kg, po administered 4 times per week for 4 weeks; format: functional, organism-based
Cytochrome P450 2D6 = Cytochrome P450 2D6 (Homo sapiens, UniProt P10635); assay: Inhibition of CYP2D6 (unknown origin) using dextromethorphan as substrate incubated for 10 mins in presence of NADPH by LC-MS/MS analysis; format: ADME
Cytochrome P450 2C8 = Cytochrome P450 2C8 (Homo sapiens, UniProt P10632); assay: Inhibition of CYP2C8 (unknown origin) incubated for 10 mins in presence of NADPH by LC-MS/MS analysis; format: ADME
[3] = Unbound plasma protein binding in human incubated for 24 hrs by HPLC based equilibrium dialysis method; format: ADME, cell-free
Mus musculus [4] = assay: Anti-alzheimer activity against 8 month old 3xTg mouse model assessed as improved spatial preference towards annulus at 10 mg/kg, po administered 4 times per week for 4 weeks; format: functional, organism-based
Mus musculus [5] = assay: Anti-necroptosis activity in 3xTg mouse hippocampus assessed as reduction in Iba activation at 2 to 10 mg/kg, po; format: functional, organism-based; conditions: dose 2-10 mg/kg
[6] = Unbound plasma protein binding in mouse incubated for 24 hrs by HPLC based equilibrium dialysis method; format: ADME, cell-free
Mus musculus [7] = assay: Anti-necroptosis activity in 3xTg mouse hippocampus assessed as reduction in pMLKL activation at 2 to 10 mg/kg, po; format: functional, organism-based; conditions: dose 2-10 mg/kg
[8] = biological target: Mitogen-activated protein kinase kinase kinase kinase 4 (Mus musculus) (UniProt P97820); assay: Inhibition of MAP4K4 activation in mouse BV-2 cells by Western blotting analysis; format: cell-based; conditions: dose 4-100 nM
Sequence of Mitogen-activated protein kinase kinase kinase kinase 4 (Mus musculus) (P97820 whole entry): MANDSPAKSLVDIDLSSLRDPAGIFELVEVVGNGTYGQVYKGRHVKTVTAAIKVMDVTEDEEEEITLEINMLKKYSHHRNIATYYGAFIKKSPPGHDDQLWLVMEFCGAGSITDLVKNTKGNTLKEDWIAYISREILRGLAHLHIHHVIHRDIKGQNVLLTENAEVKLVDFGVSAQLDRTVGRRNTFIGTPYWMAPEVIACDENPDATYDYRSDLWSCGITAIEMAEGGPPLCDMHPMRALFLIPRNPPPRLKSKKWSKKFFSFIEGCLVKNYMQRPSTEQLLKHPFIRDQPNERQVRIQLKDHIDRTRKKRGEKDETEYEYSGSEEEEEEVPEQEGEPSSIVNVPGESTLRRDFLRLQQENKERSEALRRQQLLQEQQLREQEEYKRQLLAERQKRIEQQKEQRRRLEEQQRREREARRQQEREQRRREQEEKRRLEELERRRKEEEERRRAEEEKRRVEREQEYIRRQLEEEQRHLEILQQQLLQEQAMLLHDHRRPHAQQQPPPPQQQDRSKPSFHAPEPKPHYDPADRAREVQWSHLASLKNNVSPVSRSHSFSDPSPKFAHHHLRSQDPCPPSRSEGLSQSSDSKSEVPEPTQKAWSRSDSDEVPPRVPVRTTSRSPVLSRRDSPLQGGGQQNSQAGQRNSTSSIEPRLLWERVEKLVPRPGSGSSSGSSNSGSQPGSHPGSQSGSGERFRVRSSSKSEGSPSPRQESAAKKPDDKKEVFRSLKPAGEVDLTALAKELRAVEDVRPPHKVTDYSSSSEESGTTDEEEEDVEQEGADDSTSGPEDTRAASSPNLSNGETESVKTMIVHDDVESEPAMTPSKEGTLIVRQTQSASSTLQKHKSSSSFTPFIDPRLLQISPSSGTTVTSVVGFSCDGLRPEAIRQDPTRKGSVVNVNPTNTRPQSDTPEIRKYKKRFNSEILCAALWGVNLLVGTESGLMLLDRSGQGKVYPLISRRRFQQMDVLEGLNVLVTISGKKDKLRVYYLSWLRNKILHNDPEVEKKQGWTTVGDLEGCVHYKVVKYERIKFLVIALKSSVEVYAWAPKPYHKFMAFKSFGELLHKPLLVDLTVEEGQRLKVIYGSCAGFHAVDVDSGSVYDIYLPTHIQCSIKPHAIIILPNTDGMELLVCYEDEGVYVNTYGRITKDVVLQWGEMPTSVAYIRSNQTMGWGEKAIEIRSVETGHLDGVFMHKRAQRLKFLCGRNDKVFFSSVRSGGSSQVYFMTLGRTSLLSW

Microglia [9] = assay: Anti-necroptosis activity in LPS/zVAD stimulated mouse primary microglia overexpressed with MAP4K4 assessed as reversal of mitochondrial swelling by TEM analysis; format: functional, cell-based
[10] = biological target: ALK tyrosine kinase receptor (Homo sapiens, UniProt Q9UM73, E1167A); assay: Inhibition of ALK E1167A mutant (unknown origin) expressed in Escherichia coli BL21 (DE3)
Sequence of ALK tyrosine kinase receptor (Homo sapiens, UniProt Q9UM73, E1167A) (Q9UM73 19-1620 E1167A limits assumed): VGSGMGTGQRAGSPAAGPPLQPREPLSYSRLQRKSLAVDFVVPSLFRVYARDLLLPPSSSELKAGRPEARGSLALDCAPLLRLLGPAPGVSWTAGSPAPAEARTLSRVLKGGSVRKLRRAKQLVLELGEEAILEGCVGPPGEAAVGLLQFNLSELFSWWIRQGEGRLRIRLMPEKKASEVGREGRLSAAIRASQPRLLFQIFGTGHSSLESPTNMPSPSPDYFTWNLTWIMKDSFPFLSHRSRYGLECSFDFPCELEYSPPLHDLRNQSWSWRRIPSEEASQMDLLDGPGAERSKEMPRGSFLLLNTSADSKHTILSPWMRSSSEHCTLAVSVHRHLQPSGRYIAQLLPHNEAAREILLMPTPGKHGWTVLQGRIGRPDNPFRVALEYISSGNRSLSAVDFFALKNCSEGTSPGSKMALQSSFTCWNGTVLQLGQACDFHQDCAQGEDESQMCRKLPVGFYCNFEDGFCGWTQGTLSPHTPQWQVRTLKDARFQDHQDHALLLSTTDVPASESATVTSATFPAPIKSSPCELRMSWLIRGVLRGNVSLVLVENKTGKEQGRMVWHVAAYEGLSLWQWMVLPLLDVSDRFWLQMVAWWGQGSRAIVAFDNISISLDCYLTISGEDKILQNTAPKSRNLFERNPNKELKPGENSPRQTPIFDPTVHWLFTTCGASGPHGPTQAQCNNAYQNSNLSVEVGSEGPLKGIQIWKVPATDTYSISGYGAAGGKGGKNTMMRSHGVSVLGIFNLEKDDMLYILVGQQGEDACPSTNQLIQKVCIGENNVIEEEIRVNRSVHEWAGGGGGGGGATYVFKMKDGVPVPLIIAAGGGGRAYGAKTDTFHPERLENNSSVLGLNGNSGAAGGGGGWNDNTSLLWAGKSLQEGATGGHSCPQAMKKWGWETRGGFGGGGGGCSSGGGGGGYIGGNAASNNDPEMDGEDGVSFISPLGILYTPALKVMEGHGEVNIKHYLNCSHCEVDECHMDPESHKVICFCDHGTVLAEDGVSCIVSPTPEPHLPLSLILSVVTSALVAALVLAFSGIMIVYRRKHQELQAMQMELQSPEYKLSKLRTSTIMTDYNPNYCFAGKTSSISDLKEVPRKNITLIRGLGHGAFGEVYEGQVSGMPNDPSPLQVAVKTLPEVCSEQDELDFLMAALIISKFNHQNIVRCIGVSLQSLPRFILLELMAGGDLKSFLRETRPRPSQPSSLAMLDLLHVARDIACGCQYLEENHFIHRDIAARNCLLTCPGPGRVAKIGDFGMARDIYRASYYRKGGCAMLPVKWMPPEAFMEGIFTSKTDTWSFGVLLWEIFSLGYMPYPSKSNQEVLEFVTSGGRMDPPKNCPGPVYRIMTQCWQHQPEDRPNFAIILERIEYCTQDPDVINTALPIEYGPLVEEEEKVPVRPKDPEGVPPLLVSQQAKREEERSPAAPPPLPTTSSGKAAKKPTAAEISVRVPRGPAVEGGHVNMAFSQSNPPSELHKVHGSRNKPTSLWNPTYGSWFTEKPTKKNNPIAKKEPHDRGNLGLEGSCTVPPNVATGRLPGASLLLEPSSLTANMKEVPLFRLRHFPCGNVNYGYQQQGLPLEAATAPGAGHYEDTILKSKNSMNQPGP

Cytochrome P450 3A5 = Cytochrome P450 3A5 (Homo sapiens, UniProt P20815); assay: Inhibition of CYP3A5 (unknown origin) using midazolam as substrate incubated for 10 mins in presence of NADPH by LC-MS/MS analysis; format: ADME
Mus musculus [11] = assay: Anti-alzheimer activity in 8 month old 3xTg mouse model assessed as reversal of transcriptomic changes in Pttg1 at 10 mg/kg, po; format: functional, organism-based
[12] = biological target: T1, Receptor-interacting serine/threonine-protein kinase 1 (Homo sapiens) (UniProt Q13546); assay: Inhibition of RIPK1 (unknown origin) at 1 uM
T1 sequence (whole entry): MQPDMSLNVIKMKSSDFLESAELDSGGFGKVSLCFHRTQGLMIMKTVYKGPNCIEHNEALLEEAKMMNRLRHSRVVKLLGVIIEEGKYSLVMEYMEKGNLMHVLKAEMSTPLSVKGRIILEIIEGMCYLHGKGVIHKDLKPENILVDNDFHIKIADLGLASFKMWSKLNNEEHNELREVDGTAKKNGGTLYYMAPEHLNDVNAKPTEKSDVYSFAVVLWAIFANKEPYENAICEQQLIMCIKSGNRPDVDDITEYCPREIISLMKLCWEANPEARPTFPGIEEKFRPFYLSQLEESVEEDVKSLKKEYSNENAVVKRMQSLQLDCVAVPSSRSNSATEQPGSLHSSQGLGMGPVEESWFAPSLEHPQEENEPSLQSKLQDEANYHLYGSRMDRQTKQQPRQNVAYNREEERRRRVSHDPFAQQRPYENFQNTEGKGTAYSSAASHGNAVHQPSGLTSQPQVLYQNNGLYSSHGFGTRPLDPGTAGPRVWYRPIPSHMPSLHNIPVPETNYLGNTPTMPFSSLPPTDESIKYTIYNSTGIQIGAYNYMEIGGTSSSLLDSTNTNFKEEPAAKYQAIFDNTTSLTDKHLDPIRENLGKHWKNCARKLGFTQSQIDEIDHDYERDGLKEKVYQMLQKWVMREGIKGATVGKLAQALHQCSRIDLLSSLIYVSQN

Microglia [13] = assay: Anti-necroptosis activity in LPS/zVAD stimulated mouse primary microglia transfected with Myc-tagged ALK plasmid assessed as protection of microglia cells at 100 nM; format: functional, cell-based
[14] = biological target: Receptor-interacting serine/threonine-protein kinase 1 (Mus musculus) (UniProt Q60855); assay: Inhibition of RIPK1 activation in mouse BV-2 cells by Western blotting analysis; format: cell-based; conditions: dose 4-100 nM
Sequence of Receptor-interacting serine/threonine-protein kinase 1 (Mus musculus) (Q60855 whole entry): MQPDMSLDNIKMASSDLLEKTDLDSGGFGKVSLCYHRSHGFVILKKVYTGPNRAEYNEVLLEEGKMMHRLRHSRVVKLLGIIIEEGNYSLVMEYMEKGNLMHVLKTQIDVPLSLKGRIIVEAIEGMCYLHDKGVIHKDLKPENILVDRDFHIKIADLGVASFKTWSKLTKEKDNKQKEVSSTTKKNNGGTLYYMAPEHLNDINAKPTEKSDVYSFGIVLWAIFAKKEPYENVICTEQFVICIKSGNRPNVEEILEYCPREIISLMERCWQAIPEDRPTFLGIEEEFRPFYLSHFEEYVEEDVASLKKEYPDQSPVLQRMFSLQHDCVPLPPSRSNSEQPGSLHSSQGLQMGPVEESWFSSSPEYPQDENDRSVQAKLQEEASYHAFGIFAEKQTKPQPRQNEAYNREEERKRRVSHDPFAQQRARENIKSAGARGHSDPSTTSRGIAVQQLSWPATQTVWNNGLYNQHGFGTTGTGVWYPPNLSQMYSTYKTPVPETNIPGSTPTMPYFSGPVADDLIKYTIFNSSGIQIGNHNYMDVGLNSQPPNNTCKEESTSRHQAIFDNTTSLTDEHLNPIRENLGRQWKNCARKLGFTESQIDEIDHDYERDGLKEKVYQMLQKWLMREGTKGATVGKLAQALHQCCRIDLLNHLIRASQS

[15] = Half-life in C57BL/6 mouse brain at 10 mg/kg, po measured upto 24 hrs by LC-MS/MS analysis; format: ADME, organism-based
BV-2 [16] = assay: Anti-inflammatory activity against LPS/zVAD treated mouse BV-2 cells assessed as decrease in IL-1beta release at 100 nM by ELISA; format: functional, cell-based
[17] = biological target: Mitogen-activated protein kinase kinase kinase kinase 4 (Homo sapiens, UniProt O95819); assay: Inhibition of recombinant MAP4K4 (1 to 328 residues) (unknown origin) expressed in Escherichia coli BL21([…]) using MBP as substrate preincubated for 15 mins followed by substrate and ATP addition and measured after 90 mins by ADP-Glo luminescence […] assay
BV-2 [18] = assay: Inhibition of MLKL activation in mouse BV-2 cells by Western blotting analysis; format: cell-based; conditions: dose 4-100 nM
Microglia [19] = assay: Anti-necroptosis activity in LPS/zVAD stimulated mouse primary microglia assessed as reversal of mitochondrial swelling by TEM analysis; format: functional, cell-based
BV-2 [20] = assay: Anti-necroptosis activity in mouse BV-2 cells at 10 uM preincubated with LPS for 11 hrs followed by compound addition for 1 hr and exposed to zVAD-fmk for another 24 hrs by Cellcounting-Lite 2.0 luminescent cell viability assay; format: functional, cell-based; conditions: time 25.0 hrs
[21] = biological target: Voltage-gated inwardly rectifying potassium channel KCNH2 (Homo sapiens, UniProt Q12809); assay: Inhibition of human ERG expressed in CHO cells by Qpatch clamp method; format: toxicity, cell-based
Sequence of Voltage-gated inwardly rectifying potassium channel KCNH2 (Q12809 whole entry): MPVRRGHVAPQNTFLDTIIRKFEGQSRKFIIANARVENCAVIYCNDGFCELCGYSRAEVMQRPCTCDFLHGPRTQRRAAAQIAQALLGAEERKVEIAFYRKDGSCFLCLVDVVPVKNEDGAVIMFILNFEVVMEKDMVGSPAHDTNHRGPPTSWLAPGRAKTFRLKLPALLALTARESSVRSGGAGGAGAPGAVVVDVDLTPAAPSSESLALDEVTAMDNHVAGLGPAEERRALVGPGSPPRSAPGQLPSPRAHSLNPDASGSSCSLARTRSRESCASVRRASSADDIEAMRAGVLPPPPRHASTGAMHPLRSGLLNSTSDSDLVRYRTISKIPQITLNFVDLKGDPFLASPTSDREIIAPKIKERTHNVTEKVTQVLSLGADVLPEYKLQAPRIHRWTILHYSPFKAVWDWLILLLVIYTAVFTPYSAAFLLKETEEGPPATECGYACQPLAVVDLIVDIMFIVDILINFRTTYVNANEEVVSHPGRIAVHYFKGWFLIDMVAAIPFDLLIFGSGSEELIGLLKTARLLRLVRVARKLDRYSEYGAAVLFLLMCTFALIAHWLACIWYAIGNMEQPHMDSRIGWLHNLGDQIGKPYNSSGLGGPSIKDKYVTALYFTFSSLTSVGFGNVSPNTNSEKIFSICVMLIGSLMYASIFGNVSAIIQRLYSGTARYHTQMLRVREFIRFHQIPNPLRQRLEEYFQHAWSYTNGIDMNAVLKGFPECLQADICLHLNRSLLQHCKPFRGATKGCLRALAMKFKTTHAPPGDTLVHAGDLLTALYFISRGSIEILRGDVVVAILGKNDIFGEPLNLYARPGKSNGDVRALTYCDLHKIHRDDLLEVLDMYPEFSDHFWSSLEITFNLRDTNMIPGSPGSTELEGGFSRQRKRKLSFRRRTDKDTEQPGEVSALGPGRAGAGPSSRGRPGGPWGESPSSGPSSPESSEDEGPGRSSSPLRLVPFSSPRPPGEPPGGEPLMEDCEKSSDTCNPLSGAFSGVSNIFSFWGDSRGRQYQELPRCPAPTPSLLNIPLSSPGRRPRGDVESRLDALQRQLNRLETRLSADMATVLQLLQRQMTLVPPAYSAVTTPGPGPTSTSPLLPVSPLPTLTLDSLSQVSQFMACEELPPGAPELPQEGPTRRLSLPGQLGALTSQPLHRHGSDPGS

Mus musculus [22] = assay: Anti-alzheimer activity against 5 month old APP/PS1 transgenic mouse model assessed as improved spatial preference towards annulus at 10 mg/kg, po administered 4 times per week for 4 weeks; format: functional, organism-based
Microglia [23] = assay: Anti-necroptosis activity in LPS/zVAD stimulated mouse primary microglia transfected with HA-tagged MAP4K4 plasmid assessed as protection of microglia cells at 100 nM; format: functional, cell-based
Mus musculus [24] = assay: Anti-alzheimer activity against 5 month old APP/PS1 transgenic mouse model assessed as decrease in anxiety level at 2 to 10 mg/kg, po administered 4 times per week for 4 weeks; format: functional, organism-based; conditions: dose 2-10 mg/kg
Mus musculus [25] = assay: Anti-alzheimer activity against 8 month old 3xTg mouse model assessed as decrease in anxiety level at 2 to 10 mg/kg, po administered 4 times per week for 4 weeks; format: functional, organism-based; conditions: dose 2-10 mg/kg
[26] = biological target: ALK tyrosine kinase receptor (Homo sapiens, UniProt Q9UM73); assay: Inhibition of ALK (unknown origin) at 1 uM
Sequence of ALK tyrosine kinase receptor (Homo sapiens, UniProt Q9UM73) (Q9UM73 19-1620 limits assumed): as the sequence (Q9UM73 19-1620 E1167A limits assumed) above, with A1149E counted along it

Microglia [27] = assay: Anti-necroptosis activity in LPS/zVAD stimulated mouse primary microglia overexpressed with MAP4K4 assessed as reversal of severe membrane disruption by TEM analysis; format: functional, cell-based

- IC50 (Cytochrome P450 2D6): > 10 µM
- IC50 (Cytochrome P450 2C8): 6.8 µM
- Fu [3]: 0.1%
- Fu [6]: 0.8%
- inhibition [8]: Dose-dependent-effect
- IC50 [10]: 4.43 µM
- IC50 (Cytochrome P450 3A5): > 10 µM
- inhibition [12]: Active
- inhibition [14]: Dose-dependent-effect
- half-life [15]: 8.46 h
- inhibition [26]: Active
Compound: Cc1cc(F)cc(Nc2ncc(Nc3ccc(SC(F)(F)F)cc3)cc2C(N)=O)c1
- Activity (Microglia [1]): inactive
- Activity (Mus musculus [2]): Active; Activity More Potent Than Nec-1
- Activity (Mus musculus [4]): Active
- Activity (Mus musculus [5]): Active
- Activity (Mus musculus [7]): Active
- Activity (Microglia [9]): inactive
- Activity (Mus musculus [11]): Active
- Activity (Microglia [13]): inactive
- Activity (BV-2 [16]): Active
- IC50 [17]: 0.41 µM
- inhibition (BV-2 [18]): Dose-dependent-effect
- Activity (Microglia [19]): Active
- Activity (BV-2 [20]): Active
- IC50 [21]: > 20 µM
- Activity (Mus musculus [22]): Active
- Activity (Microglia [23]): inactive
- Activity (Mus musculus [24]): Active
- Activity (Mus musculus [25]): Active
- Activity (Microglia [27]): inactive
